{
  "source": "patent US12398400B2",
  "about": "“Herbicide-resistant acetyl-CoA carboxylase (ACC) mutant and use thereof” (priority 2020, dated 2025)",
  "assay_type_in_all_cases": "in vivo",
  "key": {"[1]": {"tested_on": "wild-type Oryza sativa plants", "test": "Herbicide spray on wild-type control plants", "settings": "for phytotoxicity observed: field seedlings", "description": "(§1) Multiple Oryza sativa varieties such as Wanzhijing 006, Nanjing 9108, and Jiahe 218 were used as experimental materials. The base editor constructed above was transformed into the Oryza sativa plants by A. tumefaciens to obtain gene-edited plants. Emerging seedlings were screened with a sethoxydim-containing medium at a concentration of SET-2: 2 mg/L. Or, edited seedlings were planted in a cultivation room. The edited seedlings and the control plants were sprayed with sethoxydim at a concentration of 0.5 g/L (corresponding to a field application dosage of 10 g. a.i/mu), and a survival rate of the seedlings was counted 10 d later.\n(§2) For I1879V edited Oryza sativa plants, the dosage of sethoxydim was further increased to a corresponding field application dosage of 15 g. a.i/mu. The dosage of sethoxydim was further increased to 30 g. a.i/mu.\n(§3) Dibble Oryza sativa plants at the seedling stage in the field were selected and sprayed with phenthodim at 20 g.a.i./mu (4 times a recommended dosage), and then results were observed."}, "[2]": {"tested_on": "I1879V edited Oryza sativa plants", "test": "Herbicide spray tolerance of I1879V edited plants", "settings": "for phytotoxicity observed: field seedlings; for tolerance compared with wild-type control: 5 g.a.i./mu, FIG. 6", "description": "as §1, §2\n(§4) The I1879V and C2186R edited Oryza sativa plants obtained in Example 1 were planted, and the resistance to other types of herbicides was tested, such as phenthodim, quizalofop-p, fenoxaprop-p-ethyl, clethodim, haloxyfop-p-methyl, fenoxaprop, and butyclofen.\nas §3\n(§5) Quizalofop-p and fenoxaprop-p-ethyl were each applied at 5 g.a.i./mu to I1879V edited plants and C2186R edited plants, and results were observed 14 d later.\nThe tolerance of the I1879V edited plants to clethodim, haloxyfop-p-methyl, fenoxaprop, and butyclofen was tested, where the clethodim, haloxyfop-p-methyl, and fenoxaprop were each applied at concentrations of 5 g.a.i./mu (1×) and 10 g.a.i./mu (2×); and the butyclofen was applied at concentrations of 10 g.a.i./mu (1×) and 20 g.a.i./mu (2×). After the herbicide was applied for 20 d, the growth of the edited plants was observed and the herbicide resistance of the edited plants was counted."}, "[3]": {"tested_on": "C2186R edited Oryza sativa plants", "test": "Herbicide spray tolerance of C2186R edited plants", "settings": "for tolerance compared with wild-type control: 5 g.a.i./mu, 14 d later, FIG. 6", "description": "as §1\n(§6) Through screening cultivation, herbicide-resistant plants were screened out on a sethoxydim-containing medium. […] In addition, herbicide-resistant plants were also screened out in the cultivation room.\nas §4, §3, §5"}, "[4]": {"tested_on": "I1879V edited Oryza sativa plants", "test": "Screening of emerging seedlings on sethoxydim-containing medium", "settings": "2 mg/L, FIG. 2", "description": "as §1, §6"}, "[5]": {"settings": "20 g.a.i./mu (4 times recommended dosage), 7 d after spraying"}, "[6]": {"settings": "20 g.a.i./mu, 20 d after application, FIG. 5"}, "[7]": {"settings": "15 g. a.i/mu, 14 d later, FIG. 4"}},
  "data": [
    {"compound": "phenthodim", "values": [
      {"measurement": "phytotoxicity observed", "setting": "[1]; [5]", "value": "obvious chlorosis and spots"},
      {"measurement": "phytotoxicity observed", "setting": "[1]; [6]", "value": "serious phytotoxicity"},
      {"measurement": "phytotoxicity observed", "setting": "[2]; [5]", "value": "no visible phytotoxicity"},
      {"measurement": "phytotoxicity observed", "setting": "[2]; [6]", "value": "no obvious phytotoxicity"},
      {"measurement": "phytotoxicity observed", "setting": "[3]; 20 g.a.i./mu, field seedlings", "value": "obvious phytotoxicity"}
    ]},
    {"compound": "C[C@@H](Oc1ccc(Oc2cnc3cc(Cl)ccc3n2)cc1)C(=O)O", "note": "[Quizalofop-p, quizalofop-p]", "values": [
      {"measurement": "tolerance compared with wild-type control", "setting": "[2]; 14 d later", "value": "failed to produce tolerance"},
      {"measurement": "tolerance compared with wild-type control", "setting": "[3]", "value": "failed to produce tolerance"}
    ]},
    {"compound": "CCC/C(=N\\OCC)C1=C(O)CC(CC(C)SCC)CC1=O", "note": "(stereo not drawn) [sethoxydim]", "values": [
      {"measurement": "state of control plants after herbicide", "setting": "[1]; [7]", "value": "obviously yellow and dead"},
      {"measurement": "survival of wild-type plants after herbicide", "setting": "[1]; 30 g. a.i/mu, 20 d", "value": "all wild-type plants died"},
      {"measurement": "growth of edited material after herbicide", "setting": "[2]; [7]", "value": "grew normally"},
      {"measurement": "phytotoxicity", "setting": "[2]; 30 g. a.i/mu, 20 d", "value": "about 30%"},
      {"measurement": "herbicide tolerance of edited seedlings on herbicide-containing medium", "setting": "[4]", "value": "able to tolerate the herbicide"},
      {"measurement": "herbicide tolerance of edited seedlings after spraying", "setting": "[3]; sprayed at 0.5 g/L (field application dosage 10 g. a.i/mu), 10 d, FIG. 3", "value": "able to tolerate the herbicide"}
    ]},
    {"compound": "CCOC(=O)[C@@H](C)Oc1ccc(Oc2nc3ccc(Cl)cc3o2)cc1", "note": "[fenoxaprop-p-ethyl]", "values": [
      {"measurement": "tolerance compared with wild-type control", "setting": "[2]; 14 d later", "value": "failed to produce tolerance"},
      {"measurement": "tolerance compared with wild-type control", "setting": "[3]", "value": "failed to produce tolerance"}
    ]}
  ]
}
